Patent US20170226552A1, “METHODS FOR MODULATING PROTEIN GLY[…] OF R[…] THERAPEUTICS USING COBALT” (AbbVie Inc., priority 2014, published 2017)

Assays:
Format in all cases: cell-based, Chinese Hamster
[1] = test system: Cell Line 1 (CHO cell line expressing Antibody 1); assay: Cell Line 1 shake flask fedbatch culture: N-glycan oligosaccharide profile of Antibody 1
Procedure: (§1) Two recombinant Chinese Hamster Ovary (CHO) cell lines expressing two different recombinant glycoproteins were evaluated in 2 different culture vessels (shaker flasks and 3 L laboratory scale bioreactors). Cell Line 1 expressed humanized Antibody 1, and Cell Line 2 expressed Dual Variable Domain Immunoglobulin 1 (DVD1). Antibody 1 was an IgG1 glycoprotein, and DVD1 was an immunoglobulin glycoprotein with two variable domains as documented previously (Wu C. et al., (2007) Nat Biotechnol 25(11):1290-7).
Both cells lines were of CHO DUX-B11 origin based on a dhfr (dihydrofolate reductase) expression system. All cultures utilized the same chemically defined basal media (CDBM), and chemically-defined feed media (CDFM), except Cell Linel utilized a CDFM that was enriched at a 50% higher relative concentration. Each of the experimental conditions were supplemented with cobalt chloride (Sigma-Aldrich, St. Louis, Mo.) to evaluate its potential impact on the resulting N-glycan oligosaccharide profile. In preparation of the cultures, the cell lines were expanded through separate seed train inoculums to generate enough cell biomass for inoculation of multiple cultures. Process conditions utilized during the cultures were similar between each experimental condition and the respective non-cobalt supplemented control condition (Table 1). […]
(§2) Approximately 200 μg of Protein A purified samples from Cell Lines 1 and 2 were treated with N-glycanase at 37° C. for an overnight duration to remove the N-glycans from the protein. […] Following the derivatization step, the excess dye was removed using clean up cartridges and the samples were analyzed using normal phase HPLC with fluorescent detection. […] The labeled glycans were detected using a fluorescence detector with an excitation wavelength of 330 nm and an emission wavelength of 420 nm.

[2] = test system: Cell Line 2 (CHO cell line expressing DVD1); assay: Cell Line 2 shake flask fedbatch culture: N-glycan oligosaccharide profile of DVD1
Procedure: as §1
(§3) Both cells lines were of CHO DUX-B11 origin based on a dhfr (dihydrofolate reductase) expression system. All cultures utilized the same chemically defined basal media (CDBM), and chemically-defined feed media (CDFM), except Cell Linel utilized a CDFM that was enriched at a 50% higher relative concentration. Each of the experimental conditions were supplemented with cobalt chloride (Sigma-Aldrich, St. Louis, Mo.) to evaluate its potential impact on the resulting N-glycan oligosaccharide profile. In preparation of the cultures, the cell lines were expanded through separate seed train inoculums to generate enough cell biomass for inoculation of multiple cultures. Process conditions utilized during the cultures were similar between each experimental condition and the respective non-cobalt supplemented control condition (Table 1).
Purified antibodies subjected to additional analytical characterization were purified using MabSelect™ Protein A (GE Healthcare, Piscataway, N.J.) using a low pH, step elution gradient, followed by buffer exchange using Spin Concentrator X UF columns (Corning Lifesciences, Tewksbury, Mass.), or equivalent, according to the manufacturer's recommended procedure.
Approximately 200 μg of Protein A purified samples from Cell Lines 1 and 2 were treated with N-glycanase at 37° C. for an overnight duration to remove the N-glycans from the protein. The protein was precipitated and the supernatant was taken for subsequent chemical derivatization of the reducing end of the released glycans with 2-aminobenzamide (2-AB) dye. Following the derivatization step, the excess dye was removed using clean up cartridges and the samples were analyzed using normal phase HPLC with fluorescent detection. Mobile phase A was 100% acetonitrile and mobile phase B was 50 mM ammonium formate at pH 4.4. The glycans were eluted from a polyamide column (Prozyme, Hayward, Calif.) using a shallow gradient. The labeled glycans were detected using a fluorescence detector with an excitation wavelength of 330 nm and an emission wavelength of 420 nm.

[3] = test system: Cell Line 1 (CHO cell line expressing Antibody 1); assay: Cell Line 1 shake flask fedbatch culture: viable cell density and cell viability (trypan blue exclusion)
Procedure: as §1, §3
(§4) Viable cell density (VCD) and cell viability values were measured through trypan blue exclusion via Cedex automated cell counters (Roche Applied Science, Indianapolis, Ind.), glucose and lactate values were measured with a ABL-805 (Radiometer Medical, Denmark) blood gas analyzer. Offline pH, dissolved oxygen (DO), and pCO2 measurements were also performed with a ABL-805 (Radiometer Medical, Denmark) blood gas analyzer. Osmolality was measured on a Multi-Osmette 2430 osmometer (Precision Systems, Natick, Mass.).

[4] = test system: Cell Line 2 (CHO cell line expressing DVD1); assay: Cell Line 2 shake flask fedbatch culture: harvest titer of DVD 1 (Poros A HPLC)
Procedure: as §1, §3
(§5) Antibody titers were measured from crude cell culture harvests on a Poros A™ (Life Technologies, Carlsbad, Calif.) affinity column using an HPLC system operating with a low pH, step elution gradient with detection at 280 nm. Absolute concentrations were assigned with respect to reference standard calibration curves.

[5] = test system: Cell Line 2 (CHO cell line expressing DVD1); assay: Cell Line 2 shake flask fedbatch culture: viable cell density and cell viability (trypan blue exclusion)
Procedure: as §1, §3, §4

[6] = test system: Cell Line 1 (CHO cell line expressing Antibody 1); assay: Cell Line 1 3 L laboratory-scale bioreactor culture: N-glycan oligosaccharide profile of Antibody 1
Procedure: as §1
(§6) Both cells lines were of CHO DUX-B11 origin based on a dhfr (dihydrofolate reductase) expression system. […]
as §2
(§7) 3 L scale-down model bioreactors were utilized to verify the impact of CoCl2 on the resulting protein glycosylation profiles in Cell Line 1. Cell culture process performance indicators were monitored and measured throughout the respective cultures. […]

[7] = test system: Cell Line 1 (CHO cell line expressing Antibody 1); assay: Cell Line 1 shake flask fedbatch culture: harvest titer of Antibody 1 (Poros A HPLC)
Procedure: as §1, §3, §5

[8] = test system: Cell Line 1 (CHO cell line expressing Antibody 1); assay: Cell Line 1 3 L laboratory-scale bioreactor culture: cell culture performance (VCD, viability, glucose, lactate, osmolality); conditions: Cell Line 1, 3 L bioreactor, 50 μM CoCl2
Procedure: as §1, §3, §4
3 L scale-down model bioreactors were utilized to verify the impact of CoCl2 on the resulting protein glycosylation profiles in Cell Line 1. Cell culture process performance indicators were monitored and measured throughout the respective cultures. Viable cell density, cell viability, harvest titer, and harvest N-glycan oligosaccharide data was measured and reported. FIG. 4 highlights the cell culture performance results observed through the use of 50 μM CoCl2 targeted supplementation into the CDBM and CDFM. Similar to the shake flask results, there was a modest drop in the viable cell density profile (FIG. 4A), but no change in the viability profile in the 50 μM CoCl2 supplemented culture (FIG. 4B). […] Similar to the shake flask results using 50 μM CoCl2, there was a nominal drop in the final harvest titer with the cobalt supplemented culture achieving a final harvest titer 10% below that of the unsupplemented control (FIG. 4F).

[9] = test system: Cell Line 1 (CHO cell line expressing Antibody 1); assay: Cell Line 1 3 L laboratory-scale bioreactor culture: harvest titer of Antibody 1; conditions: Cell Line 1, 3 L bioreactor, 50 μM CoCl2
Procedure: as §1, §6
Antibody titers were measured from crude cell culture harvests on a Poros A™ (Life Technologies, Carlsbad, Calif.) affinity column using an HPLC system operating with a low pH, step elution gradient with detection at 280 nm. […]
as §7, with “cultures. Viable cell density, cell viability, harvest titer, and harvest N-glycan oligosaccharide data was measured and reported.” for “cultures.”

[10] = Cell Line 2, shake flask, 100 μM cobalt
[11] = Cell Line 2, shake flask, 1-100 μM CoCl2

[Cl-].[Cl-].[Co+2] [CoCl2, cobalt (II) chloride] was tested, and the “change in relative abundance of NGA2F-GlcNAc vs unsupplemented control” value ([1]; 1-100 μM CoCl2) was “statistically significant decreases”, the “change in NA2F species vs unsupplemented control” value ([1]; 1-100 μM CoCl2, much lower relative amount than NA1F) was “increased” and the “change in NA1F species vs unsupplemented control” value ([1]; concentration-dependent, 1-100 μM CoCl2) was “increase”. The “increase in NA1F glycans vs unsupplemented control” value [2, 10] was 6.2%, the “change in relative abundance of NGA2F-GlcNAc vs unsupplemented control” value [2, 11] was “statistically significant decreases” and the “change in relative abundance of high mannose glycans vs unsupplemented control” value [2, 11] was “statistically significant decreases”. For the same compound, the “change in NA2F species vs unsupplemented control” value ([2]; Cell Line 2, shake flask, 1-100 μM CoCl2, much lower relative amount than NA1F) was “increased”, the “maximum absolute percentage increase in galactosylated N-glycans relative to the unsupplemented control” value ([2]; Cell Line 2, shaker flask cultures) was 6% and the “concentration up to which there was a negligible impact on cell growth” value ([3]; Cell Line 1) was 50 µM. For the same compound, the “peak VCD compared to the control” value ([3]; Cell Line 1, shake flask, 1, 5, and 25 μM) was “approximately similar”, the “peak VCD” value ([3]; Cell Line 1, shake flask, cobalt 50 μM in CDBM and CDFM) was “approximately 9.4×10^6 cells/mL” and the “peak VCD” value ([3]; Cell Line 1, shake flask, cobalt 100 μM in CDBM and CDFM) was ~7.0×10^6 cells/mL. The “cell viability at harvest compared to the unsupplemented control” value ([3]; Cell Line 1, shake flask, each cobalt concentration evaluated (1-100 μM), harvest Day 14) was “slightly higher cell viability”, the “concentration up to which there was a negligible impact on recombinant protein productivity” value ([4]; Cell Line 2) was 5 µM and the “decrease in productivity (harvest titer of DVD 1) vs control” value (shortened to “decrease in productivity”) ([4]; Cell Line 2, shake flask, 25 μM cobalt) was 20%. For the same compound, the “decrease in productivity” value ([4]; Cell Line 2, shake flask, 50 μM cobalt) was 35%, the “decrease in productivity” value [4, 10] was 47% and the “impact on recombinant antibody productivity (harvest titer of DVD 1)” value ([4]; Cell Line 2, shake flask, 1 and 5 μM cobalt) was “negligible impact”. The “concentration up to which there was a negligible impact on cell growth” value ([5]; Cell Line 2) was 25 µM, the “peak VCD compared to the control” value ([5]; Cell Line 2, shake flask, 1, 5, and 25 μM) was “approximately similar” and the “peak VCD” value ([5]; Cell Line 2, shake flask, cobalt 50 μM in CDBM and CDFM) was “approximately 10.6×10^6 cells/mL”. The “peak VCD” value ([5]; Cell Line 2, shake flask, cobalt 100 μM in CDBM and CDFM) was ~6.7×10^6 cells/mL, the “cell viability over time and at harvest” value ([5]; Cell Line 2, shake flask, higher cobalt media concentrations, after Day 6) was “higher cell viability” and the “increase in NA1F species vs unsupplemented control” value ([6]; Cell Line 1, 3 L bioreactor, 50 μM CoCl2) was “approximately 8%”. For the same compound, the “maximum absolute percentage increase in galactosylated N-glycans relative to the unsupplemented control” value ([6]; Cell Line 1, 3 L scale bioreactors) was 8%, the “concentration up to which there was a negligible impact on recombinant protein productivity” value ([7]; Cell Line 1) was 50 µM and the “drop in productivity (harvest titer of Antibody 1) vs control” value ([7]; Cell Line 1, shake flask, 100 μM cobalt) was 21%. The “impact on recombinant antibody productivity (harvest titer of Antibody 1)” value ([7]; Cell Line 1, shake flask, 1, 5, 25, and 50 μM cobalt) was “negligible impact”, the “glucose levels in the culture media vs unsupplemented control over time” value [8] was “approximately similar” and the “higher lactate concentration in culture media vs unsupplemented control” value [8] was no more than 0.5 g/L. The “osmolality levels vs unsupplemented control” value [8] was “slightly elevated”, the “viability profile vs unsupplemented control” value [8] was “no change” and the “viable cell density profile vs unsupplemented control” value [8] was “modest drop”. The “final harvest titer below that of the unsupplemented control” value [9] was 10%.
